According to PMC8924359, “ZDQ-0620, a Novel Phosphatidylinositol 3-Kinase Inhibitor, Inhibits Colorectal Carcinoma Cell Proliferation and Suppresses Angiogenesis by Attenuating PI3K/AKT/mTOR Pathway” (Frontiers in Oncology, 2022):

Assays:
Format in all cases: biochemical
[1] = molecular target: T1, PI3Kα (Homo sapiens, UniProt P42336); experiment: ADP-Glo lipid kinase assay; supported by CETSA/ITDRF-CETSA in HCT116 cells
T1 construct: gene PIK3CA

[2] = molecular target: T2, PI3Kδ (Homo sapiens, UniProt O00329); experiment: ADP-Glo lipid kinase assay
T2 construct: gene PIK3CD
T2 sequence (O00329 1-1044): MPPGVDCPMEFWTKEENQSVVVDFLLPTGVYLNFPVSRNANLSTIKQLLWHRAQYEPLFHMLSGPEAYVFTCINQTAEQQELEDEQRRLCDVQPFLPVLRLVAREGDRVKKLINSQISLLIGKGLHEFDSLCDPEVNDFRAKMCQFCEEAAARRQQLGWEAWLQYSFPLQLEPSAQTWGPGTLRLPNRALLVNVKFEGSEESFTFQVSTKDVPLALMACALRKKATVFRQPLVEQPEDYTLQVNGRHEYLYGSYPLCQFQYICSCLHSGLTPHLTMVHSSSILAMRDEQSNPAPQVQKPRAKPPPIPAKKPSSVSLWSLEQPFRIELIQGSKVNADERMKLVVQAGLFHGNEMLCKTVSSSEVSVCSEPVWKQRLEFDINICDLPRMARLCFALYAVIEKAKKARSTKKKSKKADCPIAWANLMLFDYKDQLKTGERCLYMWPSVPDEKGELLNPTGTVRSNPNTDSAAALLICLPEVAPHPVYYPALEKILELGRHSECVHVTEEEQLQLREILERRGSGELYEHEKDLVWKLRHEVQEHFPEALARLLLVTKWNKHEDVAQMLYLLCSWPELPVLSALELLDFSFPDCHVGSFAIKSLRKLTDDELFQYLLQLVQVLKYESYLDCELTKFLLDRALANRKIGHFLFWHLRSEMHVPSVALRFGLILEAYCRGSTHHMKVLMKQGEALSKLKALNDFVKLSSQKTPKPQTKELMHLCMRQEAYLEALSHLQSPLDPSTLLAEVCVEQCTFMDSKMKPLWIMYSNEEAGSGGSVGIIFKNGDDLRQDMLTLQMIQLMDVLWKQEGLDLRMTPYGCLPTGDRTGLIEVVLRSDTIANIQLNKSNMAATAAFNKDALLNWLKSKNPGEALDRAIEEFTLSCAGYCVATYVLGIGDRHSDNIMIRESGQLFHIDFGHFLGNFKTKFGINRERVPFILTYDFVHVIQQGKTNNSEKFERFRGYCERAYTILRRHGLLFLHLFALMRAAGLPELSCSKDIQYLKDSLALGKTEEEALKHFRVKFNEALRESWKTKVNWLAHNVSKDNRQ
Excerpt: ADP-Glo lipid kinase assay on PI3Kδ | IC50 of ZDQ-0620 against PI3K kinase in vitro.

[3] = molecular target: T3, PI3Kβ (Homo sapiens, UniProt P42338); experiment: ADP-Glo lipid kinase assay; supported by CETSA in HCT116 cells (weaker than PI3Kα)
T3 construct: gene PIK3CB
T3 sequence (P42338 whole entry): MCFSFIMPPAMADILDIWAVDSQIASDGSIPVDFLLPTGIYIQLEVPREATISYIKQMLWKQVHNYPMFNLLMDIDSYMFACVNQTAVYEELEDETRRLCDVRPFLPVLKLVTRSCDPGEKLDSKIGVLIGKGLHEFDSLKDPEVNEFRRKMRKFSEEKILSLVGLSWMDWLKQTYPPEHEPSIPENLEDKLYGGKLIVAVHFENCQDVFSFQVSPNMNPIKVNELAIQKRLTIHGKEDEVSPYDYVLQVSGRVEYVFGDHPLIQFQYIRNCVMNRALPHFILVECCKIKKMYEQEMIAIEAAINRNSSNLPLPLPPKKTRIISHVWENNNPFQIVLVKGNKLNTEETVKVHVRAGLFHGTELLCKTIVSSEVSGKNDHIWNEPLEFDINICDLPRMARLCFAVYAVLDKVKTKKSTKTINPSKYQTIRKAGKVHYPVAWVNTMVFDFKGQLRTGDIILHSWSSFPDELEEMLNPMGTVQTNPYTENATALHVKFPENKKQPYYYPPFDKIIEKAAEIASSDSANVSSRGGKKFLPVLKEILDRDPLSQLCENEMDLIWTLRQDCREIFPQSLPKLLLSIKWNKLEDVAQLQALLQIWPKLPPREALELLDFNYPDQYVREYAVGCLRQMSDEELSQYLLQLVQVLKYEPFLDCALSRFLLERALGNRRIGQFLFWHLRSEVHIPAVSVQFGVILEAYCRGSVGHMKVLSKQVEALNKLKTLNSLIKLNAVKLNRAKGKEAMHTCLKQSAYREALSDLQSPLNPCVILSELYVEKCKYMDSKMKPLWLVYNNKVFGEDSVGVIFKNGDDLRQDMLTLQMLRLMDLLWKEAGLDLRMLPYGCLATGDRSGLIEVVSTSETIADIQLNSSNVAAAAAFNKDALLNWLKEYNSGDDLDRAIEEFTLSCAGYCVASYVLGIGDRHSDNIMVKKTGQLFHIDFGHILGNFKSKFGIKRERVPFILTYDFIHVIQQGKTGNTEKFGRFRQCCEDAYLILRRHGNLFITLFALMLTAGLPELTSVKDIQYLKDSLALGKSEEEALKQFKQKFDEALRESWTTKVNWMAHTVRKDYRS
Excerpt: ADP-Glo lipid kinase assay; supported by CETSA in HCT116 cells (weaker than PI3Kα) on PI3Kβ | IC50 of ZDQ-0620 against PI3K kinase in vitro.

[4] = molecular target: T4, PI3Kγ (Homo sapiens, UniProt P48736); experiment: ADP-Glo lipid kinase assay
T4 construct: gene PIK3CG
T4 sequence (P48736 whole entry): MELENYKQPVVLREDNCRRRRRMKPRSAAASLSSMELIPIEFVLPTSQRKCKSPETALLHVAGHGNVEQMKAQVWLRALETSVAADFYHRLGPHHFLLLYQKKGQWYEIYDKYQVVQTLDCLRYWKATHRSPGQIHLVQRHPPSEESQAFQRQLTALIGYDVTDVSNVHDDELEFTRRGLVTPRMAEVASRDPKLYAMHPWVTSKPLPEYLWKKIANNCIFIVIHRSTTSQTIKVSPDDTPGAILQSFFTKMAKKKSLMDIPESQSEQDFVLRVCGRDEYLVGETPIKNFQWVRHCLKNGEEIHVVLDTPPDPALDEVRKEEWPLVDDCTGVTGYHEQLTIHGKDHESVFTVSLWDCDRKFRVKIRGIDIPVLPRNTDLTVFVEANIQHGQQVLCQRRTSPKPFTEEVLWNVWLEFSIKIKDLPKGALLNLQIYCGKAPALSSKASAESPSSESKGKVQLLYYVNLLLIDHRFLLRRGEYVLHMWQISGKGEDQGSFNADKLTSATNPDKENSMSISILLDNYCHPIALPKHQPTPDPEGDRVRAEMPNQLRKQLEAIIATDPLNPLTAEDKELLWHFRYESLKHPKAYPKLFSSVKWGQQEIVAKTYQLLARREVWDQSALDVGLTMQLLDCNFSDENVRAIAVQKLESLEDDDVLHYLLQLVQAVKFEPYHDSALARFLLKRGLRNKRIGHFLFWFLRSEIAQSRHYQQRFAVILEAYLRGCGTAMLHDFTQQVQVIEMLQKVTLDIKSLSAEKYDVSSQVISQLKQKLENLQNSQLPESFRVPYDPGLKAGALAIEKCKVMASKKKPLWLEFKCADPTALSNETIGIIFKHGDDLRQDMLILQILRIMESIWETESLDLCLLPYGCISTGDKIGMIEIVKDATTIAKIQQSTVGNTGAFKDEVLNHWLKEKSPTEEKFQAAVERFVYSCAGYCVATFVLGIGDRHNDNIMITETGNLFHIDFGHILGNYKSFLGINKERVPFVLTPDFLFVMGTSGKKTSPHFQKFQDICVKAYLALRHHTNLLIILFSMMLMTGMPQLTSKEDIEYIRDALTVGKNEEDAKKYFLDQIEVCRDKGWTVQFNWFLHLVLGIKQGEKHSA
Excerpt: ADP-Glo lipid kinase assay on PI3Kγ | IC50 of ZDQ-0620 against PI3K kinase in vitro.

T1 sequence (P42336 whole entry): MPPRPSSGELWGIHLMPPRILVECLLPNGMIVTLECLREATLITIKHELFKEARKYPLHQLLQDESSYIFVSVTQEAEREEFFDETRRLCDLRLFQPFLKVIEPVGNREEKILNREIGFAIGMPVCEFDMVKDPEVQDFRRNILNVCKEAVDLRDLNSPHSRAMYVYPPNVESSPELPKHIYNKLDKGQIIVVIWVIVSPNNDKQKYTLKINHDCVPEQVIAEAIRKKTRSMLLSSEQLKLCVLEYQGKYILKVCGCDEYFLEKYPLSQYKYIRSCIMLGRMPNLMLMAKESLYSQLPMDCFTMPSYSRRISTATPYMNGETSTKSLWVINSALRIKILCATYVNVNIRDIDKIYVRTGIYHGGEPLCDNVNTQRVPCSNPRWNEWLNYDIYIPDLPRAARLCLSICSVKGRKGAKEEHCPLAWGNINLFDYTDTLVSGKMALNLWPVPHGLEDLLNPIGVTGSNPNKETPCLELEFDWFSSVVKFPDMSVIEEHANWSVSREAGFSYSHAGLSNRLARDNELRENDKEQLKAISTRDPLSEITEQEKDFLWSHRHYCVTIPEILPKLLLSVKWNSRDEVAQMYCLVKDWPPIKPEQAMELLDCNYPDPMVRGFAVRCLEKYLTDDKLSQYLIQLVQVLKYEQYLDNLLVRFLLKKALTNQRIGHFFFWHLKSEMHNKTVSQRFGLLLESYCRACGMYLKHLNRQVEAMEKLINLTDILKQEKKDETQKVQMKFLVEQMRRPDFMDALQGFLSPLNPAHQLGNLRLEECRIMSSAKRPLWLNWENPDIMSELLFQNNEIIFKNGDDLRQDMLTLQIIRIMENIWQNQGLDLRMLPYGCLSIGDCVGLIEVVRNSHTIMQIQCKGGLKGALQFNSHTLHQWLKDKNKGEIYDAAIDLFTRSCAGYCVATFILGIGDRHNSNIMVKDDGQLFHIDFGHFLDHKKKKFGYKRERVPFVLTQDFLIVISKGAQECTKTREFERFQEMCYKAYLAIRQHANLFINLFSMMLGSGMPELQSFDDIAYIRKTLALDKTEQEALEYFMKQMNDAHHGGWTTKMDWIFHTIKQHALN

IC50 [1]: 0.5 nM
IC50 [2]: 152 nM
IC50 [3]: 93 nM
IC50 [4]: 55 nM
SMILES: COc1ncc(-c2ccc3c(c2)N(CCCN2CCOCC2)C(=O)CO3)cc1NS(=O)(=O)c1ccc(F)cc1F [ZDQ-0620, 2,4-difluoro-N-(2-methoxy-5-(4-(3-morpholinopropyl)-3-oxo-3,4-dihydro-2H-benzo[b][1,4]oxazin-6-yl)pyridin-3-yl)benzenesulfonamide]
